The values below come from paper PMC12598616, “Design and optimization of caspase-1-responsive fluorescent probes for pyroptosis imaging and anti-pyroptosis drug screening” (Chemical Science, 2025).

For experiment [1], the system named is Cas-1 in primary chondrocytes. The experiment in a line: Intracellular imaging in primary chondrocytes. The class given is cell-based. The note with it: H2O2 2 mM 30, 60, 90 min; FPy1 5 μM 1 h. Here is the method:
The decline in chondrocyte function plays a crucial role in the pathogenesis of OA. Inflammasome-mediated chondrocyte pyroptosis has been closely associated with matrix degradation and cartilage degeneration in OA.[38] To model OA in vitro, primary chondrocytes were stimulated with H2O2 (2 mM) for different durations, followed by staining with FPy1 (5 μM) and fluorescence imaging to monitor the progression of pyroptosis under oxidative stress. […] To better mimic the in vivo pathological features of OA, primary chondrocytes were also cultured as three-dimensional spheroids and stimulated with H2O2. […] Furthermore, we evaluated the capability of FPy1 to monitor pyroptosis progression at different stages of OA in a mouse model. […] The pathological manifestations in the corresponding tissues became more pronounced with longer modeling periods, consistent with the fluorescence imaging results obtained using FPy1. […]
Chondrocytes were isolated from articular cartilage and resuspended in 1mL DMEM/F12 medium containing 10 μM ITS-A. A total of […] were counted and transferred into centrifuge tubes. […]
The chondrocytes or 3D cell spheroids were seeded in dishes and cultured overnight. […] Fluorescence imaging was then performed with an excitation of 514 nm, and signals were […]

For experiment [2], the system named is Cas-1 in THP-1 cells. Briefly: Imaging and flow cytometry in Cas-1 siRNA knockdown THP-1 cells. The class given is cell-based. The note with it: caspase-1 siRNA, LPS 1 μg/mL and Nig 10 μM. The procedure:
Cytotoxicity assay (CCK-8)
The cytotoxicity of FPy1 and YPy1 to THP-1 was evaluated by cell counting kit-8 (CCK-8). Briefly, the THP-1 cells were seeded in 96-well plates (5000 cells/well) and cultured at 37 °C for 24 hours. Various concentrations of FPy1 or YPy1 (0, 2.5, 5, 10, 20, 30, 40, 50 μM) in RPMI 1640 medium were added, and the cells were kept incubation for 12 hours. Then, the cells were washed with PBS and incubated in the 100 μL fresh medium with 10 μL CCK8 dye for an additional 2 hours. The absorbance was measured at 450 nm using a Tecan Infinite M1000 Multi-function microplate reader, and cell viability was calculated using the formula:
Cell viability (%) = [(OD test-ODblank)/(ODcontrol-ODblank)] ×100%
Intracellular imaging with FPy1 in THP-1 cells
THP-1 cells were seeded in dishes and cultured overnight. […] The fluorescence imaging was performed under the excitation at 514 nm with signal collection in the range […]
for 4 hours, the cells were further treated with Nig (10 μM) for 2 hours. […] The distribution of FPy1 was analyzed by collecting organelle-specific dye fluorescence at 495-525 nm with 488 nm excitation, while simultaneously detecting FPy1 fluorescence at 530-610 nm with 514 nm excitation. […]
Nucleus pulposus cells were isolated from discs and resuspended in 1mL DMEM/F12 medium containing 10 μM ITS-A. A total of […] were counted and transferred into centrifuge tubes. […]
In general terms: In flow cytometry, cells or beads pass a laser one at a time.

Consider “–FLTDG– [FPy1, RhoB donor, hNR quencher]”, for which, in experiment [1], the “intracellular fluorescence intensity in primary chondrocytes” value is recorded as “increased with prolonged H2O2 stimulation”. Also, the “fluorescence intensity in Si-Casp1 group (flow cytometry)” value in experiment [2] was “lower than that in the Si-Scramble group”. Further, the “intracellular fluorescence intensity in Si-Casp1 group (confocal)” value in experiment [2] (FPy1 5 μM) is “significantly lower than that in the Si-Scramble group”.
